Measured values published in PubChem BioAssay (NCI).
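Briefly, cells in 96-well plates were exposed to five compound concentrations for 48 h, and endpoints were estimated by linear interpolation. Here, GI50 denotes the concentration required for 50% inhibition of growth. TGI denotes the concentration required for complete inhibition of growth.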

Columns and labels:
Experiment in all cases: inhibition of tumour cell growth, NCI panel, 48 h
786-0 renal = system: 786-0 renal
BT-549 breast = system: BT-549 breast
COLO 205 colon = system: COLO 205 colon
DU-145 prostate = system: DU-145 prostate
HL-60(TB) leukemia = system: HL-60(TB) leukemia
MOLT-4 leukemia = system: MOLT-4 leukemia
NCI-H460 lung = system: NCI-H460 lung
OVCAR-4 ovarian = system: OVCAR-4 ovarian
SK-MEL-28 melanoma = system: SK-MEL-28 melanoma
SNB-19 CNS = system: SNB-19 CNS

| SMILES | GI50 (786-0 renal) [µM] | TGI (786-0 renal) [µM] | GI50 (BT-549 breast) [µM] | TGI (BT-549 breast) [µM] | GI50 (COLO 205 colon) [µM] | TGI (COLO 205 colon) [µM] | GI50 (DU-145 prostate) [µM] | TGI (DU-145 prostate) [µM] | GI50 (HL-60(TB) leukemia) [µM] | TGI (HL-60(TB) leukemia) [µM] | GI50 (MOLT-4 leukemia) [µM] | TGI (MOLT-4 leukemia) [µM] | GI50 (NCI-H460 lung) [µM] | TGI (NCI-H460 lung) [µM] | GI50 (OVCAR-4 ovarian) [µM] | TGI (OVCAR-4 ovarian) [µM] | GI50 (SK-MEL-28 melanoma) [µM] | TGI (SK-MEL-28 melanoma) [µM] | GI50 (SNB-19 CNS) [µM] | TGI (SNB-19 CNS) [µM] |
| --- | --- | --- | --- | --- | --- | --- | --- | --- | --- | --- | --- | --- | --- | --- | --- | --- | --- | --- | --- | --- |
| O=S(=O)(NCCNc1cc(-c2cn(-c3ccccc3)nc2-c2cccc(O)c2)ccn1)c1ccc(Cl)cc1 | 2.54 | 9.78 | 2.06 | 7.65 | 1.87 | 4 | 3.6 | 21.3 | 2.42 | 5.98 | 2.51 | 7.37 | 3.34 | 11.9 | 4.37 | > 100 | 2.2 | 5.42 | 4.26 | 63.7 |
| Cc1ccc(C2C3=C(N=c4s/c(=C/c5ccc(Br)cc5)c(=O)n42)c2ccc4ccccc4c2OCC3)cc1 (stereo not drawn) | > 100 | > 100 | > 100 | > 100 | > 100 | > 100 | > 100 | > 100 | > 100 | > 100 | > 100 | > 100 | > 100 | > 100 | > 100 | > 100 | > 100 | > 100 | > 100 | > 100 |
| Cc1nc2cc(Nc3nc(Nc4ccc(F)cc4)nc(N4CCN(C)CC4)n3)ccc2n1Cc1ccccc1 | 1.54 | 3.32 | 1.73 | 3.44 | 1.94 | 3.62 | 1.75 | 3.37 | 1.34 | 3.36 | 2.01 | 5.07 | 1.9 | 3.83 | 2.2 | 5.87 | 1.73 | 3.16 | 2.47 | 7.42 |
| COc1ccc(C(=O)COc2cccc(/C=C3\CSc4ccc(Cl)cc4C3=O)c2)cc1 | 15.6 | 29.8 | 12.9 | 33.5 | 14.1 | 29 | 12.7 | 25.3 | 2.18 | 7.21 | 2.25 | 5.53 | 16.2 | 34.9 | 11.7 | 28.4 | 15.4 | 29 | 6.99 | 20.1 |
| COc1ccc(CC(NC(=O)[C@H](C)NC(=O)CN2CCOCC2)C(=O)N[C@@H](Cc2ccccc2)C(=O)[C@@]2(C)CO2)cc1 (stereo partly drawn) | 0.364 | 1.76 | 0.154 | 0.391 | 0.308 | 0.933 | 0.437 | 5.71 | 0.157 | – | 0.0572 | – | 0.422 | 1.96 | 0.228 | 0.856 | 0.215 | 0.586 | 0.651 | > 100 |
